Measured values reported in publication PMC5768343, “A natural inhibitor of kidney-type glutaminase: a withanolide from Physalis pubescens with potent anti-tumor activity” (Oncotarget, 2017).

What was measured:
[1] = system: glutamine metabolism in SW1990 cells; assay: Intracellular metabolite levels and NADPH/NADP+, SW1990; format: cell-based, human; settings: SW1990, 2.5 or 5 μM, 4 hours
Protocol: Blocking glutamine metabolism can inhibit the growth and proliferation of glutamine-dependent cells, mainly because of blocking the production and utilization of glutamine metabolites. The effects of different concentrations of physapubescin K on the intracellular glutamine and its downstream metabolites were examined. […] And the same effect could also be seen in Hcc827-ER cells (Figure 7C).
NADPH/NADP^+ ratio was determined by using NADP^+/NADPH Quantification Colorimetric Kit (BioVision, #K347-100). The abundance of intracellular glutamine (KeyGen, Nanjing, China A124), glutamate (KeyGen, Nanjing, China A074), (BioVision, #K778), aspartate (BioVision, #K552), oxaloacetate (BioVision, #K659) and malate (BioVision, #K637) was determined by using quantification kits, according the manufacturer’s instruction. Briefly, 5 × 10^6 cells (10-cm dishes) were collected during log-phase growth by cell scraper, homogenized in 0.2 mL of provided buffers (on ice), and centrifuged at 4°C for 10 min at 13,000 g. Supernatants were deproteinized using 10 K Ultrafiltration tube (Millipore, USA), analyzed and compared to standard curves. The signals obtained were normalized to the protein concentration calculated upon processing a parallel 10-cm dish.

[2] = target: T1, catalytic domain of human KGA (cKGA) (Homo sapiens, UniProt O94925); assay: In vitro KGA enzyme inhibition assay (GDH-coupled, NADH absorbance 340 nm); format: biochemical
T1 sequence (O94925 221-553): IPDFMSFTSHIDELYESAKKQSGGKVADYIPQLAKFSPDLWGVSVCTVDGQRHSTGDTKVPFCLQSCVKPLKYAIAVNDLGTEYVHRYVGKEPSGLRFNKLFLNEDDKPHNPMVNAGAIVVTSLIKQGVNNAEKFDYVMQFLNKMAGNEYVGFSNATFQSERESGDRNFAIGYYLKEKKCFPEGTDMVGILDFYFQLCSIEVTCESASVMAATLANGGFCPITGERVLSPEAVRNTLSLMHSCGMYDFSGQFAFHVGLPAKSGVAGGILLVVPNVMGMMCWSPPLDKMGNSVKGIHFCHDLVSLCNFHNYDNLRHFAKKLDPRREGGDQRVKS
Protocol: To validate the finding of the virtual ligand screening, the catalytic domain of human KGA (cKGA) was expressed by recombinant technique. […] Enzyme kinetics has been measured to explore the mode of inhibition.
Specific details were referenced to our previous work. Briefly, The catalytical domain of human KGA (cKGA) encoding amino acids 221–553 was cloned into pET26b vector with C-terminal His tag. The cKGA was then expressed in E.coli BL21 (DE3)-RIL-Condon plus. Cultures were grown in LB media contain 35 mg/L kanamycin at 37°C to OD value in 0.6–0.8, then induced at 16°C with 0.4 mM IPTG for 16 h. Cultures were harvested by centrifugation at 3500 g for 8 minutes. Cell pellets were sonicated in a buffer containing 50 mM Hepes (pH 7.5), 500 mM NaCl, 5mM imidazole, […], 1 mM DTT, 0.1% Triton X-100, and final 1 mM PMSF (Sigma-Aldrich USA). The cKGA were purified by affinity chromatography by Ni-NTA agarose, and further purified by size exclusion chromatography (Superdex 200, GE-health care, USA). The purified cKGA was stored in buffer containing 20 mM Hepes (pH 7.5), 200 mM NaCl, 10% glycerol and 3 mM DTT.
The KGA profiling assays were to evaluate the compound-dependent inhibition of KGA in vitro catalytic assay. Specific details were referenced to our previous work. Briefly, the KGA catalyzed the glutamine into glutamate plus ammonium, and then glutamate plus NAD converted to α-ketoglutarate and NADH by the catalysis of GDH. The elevated absorbance at 340 nm with the form of NADH was recorded using a microplate reader. The enzymatic activity was measured in 100 μL system. Mixed buffer containing 0.15 M K2HPO4, 50 mM Tris-Acetate pH 8.6, 0.1 mg/mL bovine serum albumin (BSA), 0.25 mM EDTA, 1 mM DTT, 4 mM NAD were prepared. Then, 10 mM glutamine, 1 unit of glutamate dehydrogenase (GDH) and inhibitor were added in the mix. Final concentration of 1 μM cKGA was added to initiate the reaction. Generation of NADH was monitored by 340 nm absorbance every minute for 20 minutes at 37°C. The IC50 values were calculated by fitted regression equation using the-log plot (GraphPad Prism). Each value was on behalf of the means ± SD of three independent tests, each with three replicates.

HCC827-ER = assay: EdU and DAPI double staining, combination with erlotinib; format: cell-based, human; settings: 0.5 μM with erlotinib 1, 2, 4, 8 μM
Protocol: The logarithmic growth phase cells were seeded in 24-well plates at 2 × 10^4 ∼ 5 × 10^5 cells per well. After 4–6 h, the medium was removed, the medium containing no or different concentrations of compound was replaced, and 50 μM of EdU was added. 2 h later, the medium was removed, cells washed by PBS. 200 μL of cell fixative (i.e., PBS containing 4% paraformaldehyde) was added and incubated at room temperature for 30 minutes. The solution was discarded and 200 μL of 2 mg/mL glycine was added to each well. After 5 minutes of incubation, the glycine solution was discarded. Each well washed with 200 μL of PBS, rinse for 5 minutes, and PBS was removed. Apollo staining was added to each well with 200 μL of 1 X Apollo® staining solution. After incubation for 30 minutes at room temperature and decolorization, the reaction solution was discarded. Similarly, 200 μL of 1 × Hoechst 33342 solution was added to each well to dye the total DNA. After 30 minutes of incubation at room temperature and the reaction solution was discarded, and then the images were captured and analyzed by fluorescence microscopy.

## CO[C@H]1O[C@@H]([C@@H](C)[C@H]2C[C@H](OC(C)=O)[C@H]3[C@@H]4C[C@H]5O[C@]56[C@@H](O)C=CC(=O)[C@]6(C)[C@H]4CC[C@@]32C)C[C@]2(C)O[C@]12C [physapubescin K]
[1]
  consumption of glutamine: significantly reduce
  production of glutamic acid and its downstream metabolites (oxaloacetic acid, aspartic acid, malic acid): decrease
  proportion of NADPH/NADP+: significantly reduced
[2]; 1 μM cKGA, 10 mM glutamine, 37°C
  IC50: 0.52 ± 0.06 µM
[2]; 5 μM compound, after substrate concentration was increased from 10 mM to 40 mM (0 at 10 mM)
  catalytic rate of cKGA: 0.02 ∆OD/min
[2]; 5 μM compound, substrate concentration 10 mM
  inhibition of the activity of KGA: completely inhibit
[2]; higher concentration, increases in Km for glutamine
  mode of inhibition: competitive
[2]; low concentration, decrease in Vmax, little effect on Km for glutamine
  mode of inhibition: non-competitive
[2]; saturated inhibition assay, 5 μM
  reversibility of inhibition: reversible
HCC827-ER
  sensitivity of HCC827-ER to erlotinib: significantly increase the sensitivity
